Values after ≈ are worked out from the molar mass of the structure shown.

Drawing on ChEMBL document CHEMBL4152299, “Synthesis, crystal structure and antimicrobial potential of some fluorinated chalcone-1,2,3-triazole conjugates” (2018), this text covers MIC for 23 compounds.

Common to all, as to format: functional
One assay relates to Aspergillus niger. The assay can be described thus: Antifungal activity against Aspergillus niger MTCC 8189 after 120 hrs by serial dilution method. The settings on record: MTCC 8189, 120 h.
In a further assay the test system is Escherichia coli. Kind of assay: Antibacterial activity against Escherichia coli MTCC 16521 after 24 hrs by serial dilution method. The note with it: MTCC 16521, 24 h.
The test system of the next assay is Bacillus subtilis. The assay can be described thus: Antibacterial activity against Bacillus subtilis MTCC 441 after 24 hrs by serial dilution method. The note with it: MTCC 441, 24 h.
For a further assay, the system named is Candida albicans. The assay can be described thus: Antifungal activity against Candida albicans MTCC 227 after 48 hrs by serial dilution method. The note with it: MTCC 227, 48 h.
For assay [1], the system named is Staphylococcus epidermidis. The assay can be described thus: Antibacterial activity against Staphylococcus epidermidis MTCC 6880 after 24 hrs by serial dilution method. The settings on record: MTCC 6880, 24 h.
For another assay, the system named is Pseudomonas aeruginosa. The assay can be described thus: Antibacterial activity against Pseudomonas aeruginosa MTCC 424 after 24 hrs by serial dilution method. The settings on record: MTCC 424, 24 h.

For `O=C(/C=C/c1c(OCc2cn(Cc3ccc(F)cc3)nn2)ccc2ccccc12)c1ccc([N+](=O)[O-])cc1`, the MIC (as a rule, the lowest concentration found to suppress growth) against Aspergillus niger was 3.2 µM (≈ 1.63 µg/mL); in the assay on Escherichia coli, 3.2 µM (≈ 1.63 µg/mL); against Bacillus subtilis it was 6.3 µM (≈ 3.2 µg/mL); in the assay on Candida albicans, 3.2 µM (≈ 1.63 µg/mL); in assay [1], 3.2 µM (≈ 1.63 µg/mL); in the assay with Pseudomonas aeruginosa it was 6.3 µM (≈ 3.2 µg/mL).

With `COc1ccc(C(=O)/C=C/c2c(OCc3cn(Cc4cccc(F)c4)nn3)ccc3ccccc23)cc1`, the MIC against Aspergillus niger was 12.6 µM (≈ 6.22 µg/mL); with Escherichia coli it was 12.6 µM (≈ 6.22 µg/mL); with Bacillus subtilis, 25.3 µM (≈ 12.5 µg/mL); with Candida albicans, 12.6 µM (≈ 6.22 µg/mL); in assay [1], 25.3 µM (≈ 12.5 µg/mL); in the assay on Pseudomonas aeruginosa, 25.3 µM (≈ 12.5 µg/mL).

As to `COc1ccc(C(=O)/C=C/c2c(OCc3cn(-c4ccc(F)cc4)nn3)ccc3ccccc23)cc1`, the MIC in the assay with Aspergillus niger was 52.2 µM (≈ 25 µg/mL); in the assay on Escherichia coli, 13 µM (≈ 6.23 µg/mL); against Bacillus subtilis, 26.1 µM (≈ 12.5 µg/mL); in the assay on Candida albicans, 13 µM (≈ 6.23 µg/mL); in assay [1], 52.2 µM (≈ 25 µg/mL); in the assay on Pseudomonas aeruginosa, 26.1 µM (≈ 12.5 µg/mL).

Regarding `C#CCOc1ccc2ccccc2c1/C=C/C(=O)c1ccc(OC)cc1`, the MIC worked out at 73.1 µM (≈ 25 µg/mL) against Aspergillus niger; 73.1 µM (≈ 25 µg/mL) in the assay on Escherichia coli; 73.1 µM (≈ 25 µg/mL) against Bacillus subtilis; 73.1 µM (≈ 25 µg/mL) against Candida albicans; 146 µM (≈ 50.1 µg/mL) in assay [1]; 73.1 µM (≈ 25 µg/mL) against Pseudomonas aeruginosa.

Regarding `O=C(/C=C/c1c(OCc2cn(Cc3cccc(F)c3)nn2)ccc2ccccc12)c1ccc(Br)cc1`, the MIC in the assay on Aspergillus niger stood at 23.2 µM (≈ 12.6 µg/mL); against Escherichia coli it was 11.6 µM (≈ 6.29 µg/mL); in the assay with Bacillus subtilis it was 11.6 µM (≈ 6.29 µg/mL); in the assay on Candida albicans, 23.2 µM (≈ 12.6 µg/mL); in assay [1] it was 23.2 µM (≈ 12.6 µg/mL); against Pseudomonas aeruginosa it was 23.2 µM (≈ 12.6 µg/mL).

Regarding `COc1ccc(C(=O)/C=C/c2c(OCc3cn(Cc4ccccc4F)nn3)ccc3ccccc23)cc1`, the MIC against Aspergillus niger amounted to 25.3 µM (≈ 12.5 µg/mL); in the assay with Escherichia coli, 6.3 µM (≈ 3.11 µg/mL); against Bacillus subtilis, 25.3 µM (≈ 12.5 µg/mL); against Candida albicans it was 6.3 µM (≈ 3.11 µg/mL); in assay [1], 25.3 µM (≈ 12.5 µg/mL); with Pseudomonas aeruginosa it was 12.6 µM (≈ 6.22 µg/mL).

Regarding `O=C(/C=C/c1c(OCc2cn(-c3ccc(F)cc3)nn2)ccc2ccccc12)c1ccc([N+](=O)[O-])cc1`, the MIC in the assay on Aspergillus niger worked out at 12.6 µM (≈ 6.23 µg/mL); in the assay with Escherichia coli, 25.3 µM (≈ 12.5 µg/mL); against Bacillus subtilis, 12.6 µM (≈ 6.23 µg/mL); against Candida albicans, 12.6 µM (≈ 6.23 µg/mL); in assay [1] it was 25.3 µM (≈ 12.5 µg/mL); with Pseudomonas aeruginosa it was 25.3 µM (≈ 12.5 µg/mL).

In the case of `O=C(/C=C/c1c(OCc2cn(Cc3ccccc3)nn2)ccc2ccccc12)c1ccc(Br)cc1`, the MIC was 11.9 µM (≈ 6.24 µg/mL) against Aspergillus niger; 11.9 µM (≈ 6.24 µg/mL) with Escherichia coli; 23.9 µM (≈ 12.5 µg/mL) with Bacillus subtilis; 11.9 µM (≈ 6.24 µg/mL) in the assay with Candida albicans; 11.9 µM (≈ 6.24 µg/mL) in assay [1]; 11.9 µM (≈ 6.24 µg/mL) in the assay on Pseudomonas aeruginosa.

As for `O=C(/C=C/c1c(OCc2cn(-c3cccc(C(F)(F)F)c3)nn2)ccc2ccccc12)c1ccc(Br)cc1`, the MIC against Aspergillus niger was found to be 10.8 µM (≈ 6.25 µg/mL); in the assay on Escherichia coli, 10.8 µM (≈ 6.25 µg/mL); against Bacillus subtilis, 21.7 µM (≈ 12.6 µg/mL); in the assay on Candida albicans, 21.7 µM (≈ 12.6 µg/mL); in assay [1], 21.7 µM (≈ 12.6 µg/mL); against Pseudomonas aeruginosa, 10.8 µM (≈ 6.25 µg/mL).

Turning to `C#CCOc1ccc2ccccc2c1/C=C/C(=O)c1ccc(Br)cc1`, the MIC against Aspergillus niger was 127 µM (≈ 49.8 µg/mL); with Escherichia coli, 63.7 µM (≈ 24.9 µg/mL); against Bacillus subtilis, 63.7 µM (≈ 24.9 µg/mL); in the assay on Candida albicans, 63.7 µM (≈ 24.9 µg/mL); in assay [1], 127 µM (≈ 49.8 µg/mL); against Pseudomonas aeruginosa it was 63.7 µM (≈ 24.9 µg/mL).

In the case of `O=C(/C=C/c1c(OCc2cn(Cc3cccc(F)c3)nn2)ccc2ccccc12)c1ccc([N+](=O)[O-])cc1`, the MIC is 6.3 µM (≈ 3.2 µg/mL) against Aspergillus niger; 6.3 µM (≈ 3.2 µg/mL) in the assay with Escherichia coli; 12.6 µM (≈ 6.41 µg/mL) in the assay with Bacillus subtilis; 6.3 µM (≈ 3.2 µg/mL) in the assay on Candida albicans; 6.3 µM (≈ 3.2 µg/mL) in assay [1]; 6.3 µM (≈ 3.2 µg/mL) in the assay with Pseudomonas aeruginosa.

Take `COc1ccc(C(=O)/C=C/c2c(OCc3cn(Cc4ccc(F)cc4)nn3)ccc3ccccc23)cc1`: the MIC against Aspergillus niger worked out at 12.6 µM (≈ 6.22 µg/mL); with Escherichia coli, 3.2 µM (≈ 1.58 µg/mL); with Bacillus subtilis it was 25.3 µM (≈ 12.5 µg/mL); in the assay with Candida albicans it was 6.3 µM (≈ 3.11 µg/mL); in assay [1], 25.3 µM (≈ 12.5 µg/mL); in the assay on Pseudomonas aeruginosa, 25.3 µM (≈ 12.5 µg/mL).

In the case of `O=C(/C=C/c1c(OCc2cn(Cc3ccccc3F)nn2)ccc2ccccc12)c1ccc([N+](=O)[O-])cc1`, the MIC in the assay on Aspergillus niger was 6.3 µM (≈ 3.2 µg/mL); with Escherichia coli it was 6.3 µM (≈ 3.2 µg/mL); against Bacillus subtilis, 6.3 µM (≈ 3.2 µg/mL); in the assay on Candida albicans, 6.3 µM (≈ 3.2 µg/mL); in assay [1], 6.3 µM (≈ 3.2 µg/mL); with Pseudomonas aeruginosa it was 24.8 µM (≈ 12.6 µg/mL).

`O=C(/C=C/c1c(OCc2cn(Cc3ccc(F)cc3)nn2)ccc2ccccc12)c1ccc(Br)cc1`: the minimal inhibitory concentration (MIC) with Aspergillus niger amounted to 5.8 µM (≈ 3.15 µg/mL); against Escherichia coli, 5.8 µM (≈ 3.15 µg/mL); in the assay on Bacillus subtilis, 5.8 µM (≈ 3.15 µg/mL); against Candida albicans it was 5.8 µM (≈ 3.15 µg/mL); in assay [1], 5.8 µM (≈ 3.15 µg/mL); against Pseudomonas aeruginosa, 11.6 µM (≈ 6.29 µg/mL).

With `COc1ccc(C(=O)/C=C/c2c(OCc3cn(-c4cccc(C(F)(F)F)c4)nn3)ccc3ccccc23)cc1`, the MIC came out at 11.8 µM (≈ 6.25 µg/mL) with Aspergillus niger; 11.8 µM (≈ 6.25 µg/mL) with Escherichia coli; 23.6 µM (≈ 12.5 µg/mL) in the assay on Bacillus subtilis; 11.8 µM (≈ 6.25 µg/mL) against Candida albicans; 23.6 µM (≈ 12.5 µg/mL) in assay [1]; 23.6 µM (≈ 12.5 µg/mL) against Pseudomonas aeruginosa.

Regarding `O=C(/C=C/c1c(OCc2cn(Cc3ccccc3F)nn2)ccc2ccccc12)c1ccc(Br)cc1`, the MIC against Aspergillus niger was 23.2 µM (≈ 12.6 µg/mL); in the assay with Escherichia coli, 11.6 µM (≈ 6.29 µg/mL); against Bacillus subtilis, 11.6 µM (≈ 6.29 µg/mL); against Candida albicans, 23.2 µM (≈ 12.6 µg/mL); in assay [1], 11.6 µM (≈ 6.29 µg/mL); against Pseudomonas aeruginosa, 23.2 µM (≈ 12.6 µg/mL).

For `COc1ccc(C(=O)/C=C/c2c(OCc3cn(Cc4ccccc4)nn3)ccc3ccccc23)cc1`, the MIC with Aspergillus niger stood at 52.6 µM (≈ 25 µg/mL); with Escherichia coli it was 26.3 µM (≈ 12.5 µg/mL); in the assay with Bacillus subtilis, 26.3 µM (≈ 12.5 µg/mL); with Candida albicans, 52.6 µM (≈ 25 µg/mL); in assay [1] it was 52.6 µM (≈ 25 µg/mL); against Pseudomonas aeruginosa, 26.3 µM (≈ 12.5 µg/mL).

Consider `O=C(/C=C/c1c(OCc2cn(-c3cccc(C(F)(F)F)c3)nn2)ccc2ccccc12)c1ccc([N+](=O)[O-])cc1`, for which the MIC against Aspergillus niger amounted to 45.9 µM (≈ 25 µg/mL); against Escherichia coli, 23 µM (≈ 12.5 µg/mL); against Bacillus subtilis, 45.9 µM (≈ 25 µg/mL); against Candida albicans, 11.5 µM (≈ 6.26 µg/mL); in assay [1] it was 23 µM (≈ 12.5 µg/mL); with Pseudomonas aeruginosa, 23 µM (≈ 12.5 µg/mL).

Regarding `O=C(/C=C/c1c(OCc2cn(Cc3ccccc3)nn2)ccc2ccccc12)c1ccc([N+](=O)[O-])cc1`, the MIC was 6.3 µM (≈ 3.09 µg/mL) in the assay on Aspergillus niger; 12.8 µM (≈ 6.28 µg/mL) against Escherichia coli; 6.3 µM (≈ 3.09 µg/mL) with Bacillus subtilis; 12.8 µM (≈ 6.28 µg/mL) in the assay with Candida albicans; 6.3 µM (≈ 3.09 µg/mL) in assay [1]; 12.8 µM (≈ 6.28 µg/mL) with Pseudomonas aeruginosa.

Regarding `O=C(/C=C/c1c(OCc2cn(-c3ccc(F)cc3)nn2)ccc2ccccc12)c1ccc(Br)cc1`, the MIC in the assay with Aspergillus niger turned out to be 23.7 µM (≈ 12.5 µg/mL); in the assay on Escherichia coli, 23.7 µM (≈ 12.5 µg/mL); against Bacillus subtilis it was 47.4 µM (≈ 25 µg/mL); with Candida albicans it was 47.4 µM (≈ 25 µg/mL); in assay [1], 47.4 µM (≈ 25 µg/mL); in the assay with Pseudomonas aeruginosa, 47.4 µM (≈ 25 µg/mL).

With `C#CCOc1ccc2ccccc2c1/C=C/C(=O)c1ccc([N+](=O)[O-])cc1`, the MIC is 70 µM (≈ 25 µg/mL) against Aspergillus niger; 70 µM (≈ 25 µg/mL) against Escherichia coli; 140 µM (≈ 50 µg/mL) with Bacillus subtilis; 70 µM (≈ 25 µg/mL) against Candida albicans; 70 µM (≈ 25 µg/mL) in assay [1]; 70 µM (≈ 25 µg/mL) in the assay with Pseudomonas aeruginosa.

`O=C(O)c1cn(C2CC2)c2cc(N3CCNCC3)c(F)cc2c1=O` [CIPROFLOXACIN]: the minimal inhibitory concentration (MIC) (in the assay on Escherichia coli; against Bacillus subtilis; in assay [1]; in the assay with Pseudomonas aeruginosa) was 4.7 µM (≈ 1.56 µg/mL) each time.

Turning to `OC(Cn1cncn1)(Cn1cncn1)c1ccc(F)cc1F` [FLUCONAZOLE], the MIC came to 5.1 µM (≈ 1.56 µg/mL) against Aspergillus niger and 10.2 µM (≈ 3.12 µg/mL) in the assay with Candida albicans.
